Measurements as given in US11850280B1 (priority 2020, dated 2023).

Settings: in vivo

Ivermectin
blood plasma levels versus dosage: dose-response relationship
